{
  "source": "paper PMC11238318",
  "about": "(ACS Omega, 2024)",
  "molecular_target": "Pyruvate dehydrogenase kinase 3 (PDK3) (Homo sapiens, UniProt Q15120)",
  "sequence (Q15120 whole entry)": "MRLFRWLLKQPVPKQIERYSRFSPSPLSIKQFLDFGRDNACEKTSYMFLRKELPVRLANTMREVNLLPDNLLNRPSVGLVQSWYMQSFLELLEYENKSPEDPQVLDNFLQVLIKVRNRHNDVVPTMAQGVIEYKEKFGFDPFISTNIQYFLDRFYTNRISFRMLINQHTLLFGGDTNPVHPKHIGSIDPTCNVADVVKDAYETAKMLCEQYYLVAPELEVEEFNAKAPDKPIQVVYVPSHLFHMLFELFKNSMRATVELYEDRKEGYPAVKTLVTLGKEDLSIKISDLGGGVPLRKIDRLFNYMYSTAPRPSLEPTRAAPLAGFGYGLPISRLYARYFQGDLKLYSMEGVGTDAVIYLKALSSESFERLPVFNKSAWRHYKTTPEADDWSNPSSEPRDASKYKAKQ",
  "assay": "intrinsic Trp fluorescence quenching of purified PDK3",
  "type": "binding",
  "data": [
    {"smiles": "O=c1c(O)c(-c2cc(O)c(O)c(O)c2)oc2cc(O)cc(O)c12", "note": "[MT, Myricetin]", "values": [
      {"measurement": "Kd", "value": 8.77, "unit": "µM"}
    ]}
  ]
}
